PubChem BioAssay (NCI)
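Where inhibition never reached the appropriate level, the endpoint shown equals the highest concentration tested. Otherwise, values were interpolated linearly from a five-concentration, 48-hour dose response in 96-well plates. At the GI50, growth is halved. At the TGI there is no net growth.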

Key:
Assay in all cases: NCI tumour cell line growth inhibition, 48 h
[1] = test system: OVCAR-3 ovarian
[2] = test system: SK-MEL-2 melanoma
[3] = test system: KM12 colon
[4] = test system: HT29 colon
[5] = test system: A549 NSCLC
[6] = test system: M14 melanoma
[7] = test system: T-47D breast
[8] = test system: SW-620 colon
[9] = test system: OVCAR-5 ovarian
[10] = test system: NCI/ADR-RES ovarian

Structure (SMILES)	GI50 [1]	TGI [1]	GI50 [2]	TGI [2]	GI50 [3]	TGI [3]	GI50 [4]	TGI [4]	GI50 [5]	TGI [5]	GI50 [6]	TGI [6]	GI50 [7]	TGI [7]	GI50 [8]	TGI [8]	GI50 [9]	TGI [9]	GI50 [10]	TGI [10]
COC(=O)[C@]12CC[C@@H](C)[C@H](C)[C@@H]1C1=CC[C@@H]3[C@@]4(C)C(C=O)=C[C@@](C)(COC(C)=O)C4=CC[C@@]3(C)[C@]1(C)CC2	3.54 µM	12.2 µM	4.71 µM	16.1 µM	3.49 µM	14.9 µM	3.17 µM	11 µM	3.82 µM	16.2 µM	5.27 µM	22.4 µM	3.79 µM	27.3 µM	4.15 µM	16.2 µM	5.75 µM	21.7 µM	5.35 µM	18.9 µM
O=C1C(=O)c2c(nc3ccc(Br)cn23)-c2ccccc21	0.265 µM	0.889 µM	0.596 µM	1.99 µM	1.55 µM	3.19 µM	2.44 µM	6.12 µM	1.66 µM	3.81 µM	0.489 µM	1.02 µM	1.44 µM	3.89 µM	0.622 µM	1.76 µM	1.78 µM	3.25 µM	0.699 µM	3.87 µM
Cc1cc(O)ccc1C1=NN(c2ccc(S(C)(=O)=O)cc2)C(=O)CC1	3.41 µM	9.44 µM	3.48 µM	32.8 µM	4.22 µM	> 100 µM	3.7 µM	32.3 µM	6.2 µM	> 100 µM	3.85 µM	> 100 µM	20.2 µM	> 100 µM	3.32 µM	> 100 µM	53.8 µM	> 100 µM	3.26 µM	> 100 µM
Clc1ccc2c(c1)N(CCCN1CCCC1)c1ccccc1S2	10.4 µM	22.9 µM	10.8 µM	23.9 µM	5.14 µM	18.7 µM	3.71 µM	12.9 µM	11 µM	24.5 µM	1.92 µM	3.97 µM	12.4 µM	28.5 µM	10.7 µM	25.8 µM	12.7 µM	28.3 µM	5.34 µM	18.8 µM
